According to ChEMBL document CHEMBL1201862, “PubChem BioAssay data set” (2004):
Activity calls are given as the source filed them. The rule behind the calls is not given here.

Tests used:
[1] = target: T1, High affinity choline transporter 1 (Homo sapiens, UniProt Q9GZV3); assay: CHT inhibitors, dose response, cell-based, 5-point CRC, membrane potential dye (AID 504840); format: functional
T1 sequence (Q9GZV3 whole entry): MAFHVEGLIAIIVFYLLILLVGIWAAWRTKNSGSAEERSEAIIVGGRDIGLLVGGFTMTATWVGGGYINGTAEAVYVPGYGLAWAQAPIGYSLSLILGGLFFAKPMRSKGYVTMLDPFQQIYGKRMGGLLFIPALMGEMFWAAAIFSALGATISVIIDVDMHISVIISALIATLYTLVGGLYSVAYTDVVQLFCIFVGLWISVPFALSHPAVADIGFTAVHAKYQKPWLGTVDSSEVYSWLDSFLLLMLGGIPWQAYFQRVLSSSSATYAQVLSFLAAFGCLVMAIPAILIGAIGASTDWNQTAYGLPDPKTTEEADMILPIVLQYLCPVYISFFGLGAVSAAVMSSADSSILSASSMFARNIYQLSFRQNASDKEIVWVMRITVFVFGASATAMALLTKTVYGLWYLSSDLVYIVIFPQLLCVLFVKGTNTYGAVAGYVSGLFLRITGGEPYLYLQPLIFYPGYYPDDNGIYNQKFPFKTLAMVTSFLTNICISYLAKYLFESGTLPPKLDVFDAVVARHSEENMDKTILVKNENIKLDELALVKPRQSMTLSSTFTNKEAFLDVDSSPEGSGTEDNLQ

[2] = target: T1, High affinity choline transporter 1; assay: CHT inhibitors, dose response, cell-based, 10-point CRC, membrane potential dye (AID 588401); format: functional;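 note: membrane potential dye fluorescence of choline-evoked depolarization via CHT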

- IC50 [1]: 4.77 µM (active)
- IC50 [2]: 3.98 µM (active)
Compound: CC1=NOC(=O)/C1=C/c1ccc(O)c(Br)c1
